Data set [1] addresses T1, hormone-sensitive lipase (HSL) (Homo sapiens, UniProt Q05469).
T1 construct: gene LIPE; full-length, C-terminal FLAG-tag, expressed in HEK293T
Kind of data set: gel-based competitive ABPP (FP-TAMRA) on HEK293T membranes expressing human HSL. It is filed as cell-based.

Data set [2] has as its target T2, Potassium Channel hERG (human) (Homo sapiens, UniProt Q12809).
T2 construct: gene KCNH2
Kind of data set: in vitro. Also noted: CEREP off-target panel, radioligand binding, inhibition of control specific binding. To be noted: read-out: % Inhibition of Control Specific Binding, Mean. The source says:
(§1) Mass spectrometry (MS)-based chemical proteomics experiments emulated these findings (Fig. 3d).

For data set [3], the target named is T3, MAGL (monoacylglycerol lipase) (Mus musculus, UniProt O35678).
T3 sequence (O35678 1-303): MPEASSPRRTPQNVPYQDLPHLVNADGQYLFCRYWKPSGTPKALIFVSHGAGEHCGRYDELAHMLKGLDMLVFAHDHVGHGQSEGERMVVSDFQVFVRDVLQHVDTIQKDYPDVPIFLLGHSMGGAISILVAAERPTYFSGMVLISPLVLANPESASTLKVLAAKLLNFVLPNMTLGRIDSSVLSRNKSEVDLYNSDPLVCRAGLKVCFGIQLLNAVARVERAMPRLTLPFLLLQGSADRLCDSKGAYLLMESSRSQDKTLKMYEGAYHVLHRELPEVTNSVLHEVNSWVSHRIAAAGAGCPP
In words: gel-based competitive ABPP (FP-TAMRA, MB064) in mouse brain membrane proteome. The data set is classed as biochemical. Also noted: gene Mgll; endogenous, mouse brain proteome.

The target in the next data set is T4, COX2(h) (Homo sapiens, UniProt P35354).
T4 construct: gene PTGS2
Kind of data set: biochemical. Set-up: CEREP off-target panel, enzyme inhibition. To be noted: read-out: % Inhibition, Mean (enzymes).

The next data set has as its target PDE3A (h) (Homo sapiens, UniProt Q14432). Kind of data set: biochemical. Also noted: CEREP off-target panel, enzyme inhibition. To be noted: read-out: % Inhibition, Mean (enzymes).
A further data set concerns the target T5, COX1(h) (Homo sapiens, UniProt P23219).
T5 construct: gene PTGS1
Kind of data set: biochemical. To be noted: read-out: % Inhibition, Mean (enzymes). Set-up: CEREP off-target panel, enzyme inhibition.

Another data set addresses T6, PDE4D2 (h) (Homo sapiens, UniProt Q08499).
T6 construct: gene PDE4D; isoform PDE4D2
Kind of data set: biochemical. Also noted: CEREP off-target panel, enzyme inhibition. To be noted: read-out: % Inhibition, Mean (enzymes).

In another data set the target is Lck kinase (h) (Homo sapiens, UniProt P06239). In words: biochemical. Set-up: CEREP off-target panel, enzyme inhibition. To be noted: read-out: % Inhibition, Mean (enzymes).
Another data set addresses T7, acetylcholinesterase (h) (Homo sapiens, UniProt P22303).
T7 construct: gene ACHE
Kind of data set: biochemical. Set-up: CEREP off-target panel, enzyme inhibition. To be noted: read-out: % Inhibition, Mean (enzymes).

A further data set addresses T8, 5-HT transporter (h) (Homo sapiens, UniProt P31645).
T8 construct: gene SLC6A4
In words: biochemical. Set-up: CEREP off-target panel, radioligand binding, inhibition of control specific binding. To be noted: read-out: % Inhibition of Control Specific Binding, Mean.

Data set [4] concerns the target T9, hormone-sensitive lipase (HSL) (Mus musculus, UniProt P54310).
T9 construct: gene Lipe; full-length, C-terminal FLAG-tag, expressed in HEK293T; endogenous in mouse tissue proteomes
In words: MS chemical proteomics on mouse tissues; gel-based competitive ABPP on recombinant mouse HSL. The data set is classed as cell-based.

In data set [5] the target is T10, 5-HT3(h) (antagonist radioligand) (Homo sapiens, UniProt P46098).
T10 construct: gene HTR3A; antagonist radioligand
T10 sequence (P46098 whole entry): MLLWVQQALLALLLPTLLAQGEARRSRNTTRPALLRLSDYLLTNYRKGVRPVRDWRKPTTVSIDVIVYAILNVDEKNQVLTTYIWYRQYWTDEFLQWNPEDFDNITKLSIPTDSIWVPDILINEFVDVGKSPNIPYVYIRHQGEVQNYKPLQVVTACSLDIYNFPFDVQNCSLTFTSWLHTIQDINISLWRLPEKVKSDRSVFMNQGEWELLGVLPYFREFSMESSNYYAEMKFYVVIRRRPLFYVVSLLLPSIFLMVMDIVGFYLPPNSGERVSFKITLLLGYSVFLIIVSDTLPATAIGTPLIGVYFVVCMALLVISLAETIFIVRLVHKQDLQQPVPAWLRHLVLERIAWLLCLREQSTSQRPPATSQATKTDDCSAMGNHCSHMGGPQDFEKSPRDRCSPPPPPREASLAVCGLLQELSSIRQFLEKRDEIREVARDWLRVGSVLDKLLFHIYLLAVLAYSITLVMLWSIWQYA
Kind of data set: biochemical. To be noted: read-out: % Inhibition of Control Specific Binding, Mean. Set-up: CEREP off-target panel, radioligand binding, inhibition of control specific binding.

Data set [6] deals with T11, δ (DOP) (h) (agonist radioligand) (Homo sapiens, UniProt P41143).
T11 construct: gene OPRD1; agonist radioligand
In words: biochemical. To be noted: read-out: % Inhibition of Control Specific Binding, Mean. Set-up: CEREP off-target panel, radioligand binding, inhibition of control specific binding.

Data set [7] concerns the target T12, kappa (h) (KOP) (agonist radioligand) (Homo sapiens, UniProt P41145).
T12 construct: gene OPRK1; agonist radioligand
Kind of data set: biochemical. Also noted: CEREP off-target panel, radioligand binding, inhibition of control specific binding. To be noted: read-out: % Inhibition of Control Specific Binding, Mean.

Data set [8] concerns the target T13, α1A(h) (antagonist radioligand) (Homo sapiens, UniProt P35348).
T13 construct: gene ADRA1A; antagonist radioligand
Kind of data set: biochemical. Set-up: CEREP off-target panel, radioligand binding, inhibition of control specific binding. To be noted: read-out: % Inhibition of Control Specific Binding, Mean.

Data set [9] deals with T14, D1(h) (antagonist radioligand) (Homo sapiens, UniProt P21728).
T14 construct: gene DRD1; antagonist radioligand
T14 sequence (P21728 whole entry): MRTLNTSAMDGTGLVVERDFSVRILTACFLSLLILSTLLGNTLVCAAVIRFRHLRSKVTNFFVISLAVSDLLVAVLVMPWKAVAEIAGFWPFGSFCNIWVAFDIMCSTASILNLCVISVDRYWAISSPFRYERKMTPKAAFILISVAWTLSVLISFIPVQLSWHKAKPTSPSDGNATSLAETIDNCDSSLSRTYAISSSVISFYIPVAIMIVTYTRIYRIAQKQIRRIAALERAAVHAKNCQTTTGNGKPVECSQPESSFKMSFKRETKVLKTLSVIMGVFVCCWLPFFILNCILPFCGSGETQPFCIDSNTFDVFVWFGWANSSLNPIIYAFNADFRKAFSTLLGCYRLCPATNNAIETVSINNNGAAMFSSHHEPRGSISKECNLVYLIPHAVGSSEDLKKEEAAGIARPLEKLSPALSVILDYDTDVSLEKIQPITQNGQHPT
Kind of data set: biochemical. Also noted: CEREP off-target panel, radioligand binding, inhibition of control specific binding. To be noted: read-out: % Inhibition of Control Specific Binding, Mean.

Data set [10] deals with T15, ETA(h) (agonist radioligand) (Homo sapiens, UniProt P25101).
T15 construct: gene EDNRA; agonist radioligand
Kind of data set: biochemical. Set-up: CEREP off-target panel, radioligand binding, inhibition of control specific binding. To be noted: read-out: % Inhibition of Control Specific Binding, Mean.

In data set [11] the target is T16, D2S(h) (agonist radioligand) (Homo sapiens, UniProt P14416).
T16 construct: gene DRD2; short isoform (D2S), agonist radioligand
T16 sequence (P14416 whole entry, canonical isoform): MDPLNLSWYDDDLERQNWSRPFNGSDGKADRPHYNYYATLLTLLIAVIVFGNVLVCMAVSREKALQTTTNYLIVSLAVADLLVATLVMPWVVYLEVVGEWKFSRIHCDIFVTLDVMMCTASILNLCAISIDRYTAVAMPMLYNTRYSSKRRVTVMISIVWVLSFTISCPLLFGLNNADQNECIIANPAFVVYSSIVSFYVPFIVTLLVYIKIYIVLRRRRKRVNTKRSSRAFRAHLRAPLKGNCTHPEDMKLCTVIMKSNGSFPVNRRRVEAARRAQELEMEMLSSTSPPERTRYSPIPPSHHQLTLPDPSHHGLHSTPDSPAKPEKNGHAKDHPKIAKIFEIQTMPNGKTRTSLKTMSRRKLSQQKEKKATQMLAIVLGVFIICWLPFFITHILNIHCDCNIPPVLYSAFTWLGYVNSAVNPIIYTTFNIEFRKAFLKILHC
Kind of data set: biochemical. Set-up: CEREP off-target panel, radioligand binding, inhibition of control specific binding. To be noted: read-out: % Inhibition of Control Specific Binding, Mean.

For data set [12], the target named is T17, A2A(h) (agonist radioligand)` (Homo sapiens, UniProt P29274).
T17 construct: gene ADORA2A; agonist radioligand
In words: biochemical. Set-up: CEREP off-target panel, radioligand binding, inhibition of control specific binding. To be noted: read-out: % Inhibition of Control Specific Binding, Mean.

Data set [13] concerns the target T18, norepinephrine transporter(h) (Homo sapiens, UniProt P23975).
T18 construct: gene SLC6A2
Kind of data set: biochemical. Set-up: CEREP off-target panel, radioligand binding, inhibition of control specific binding. To be noted: read-out: % Inhibition of Control Specific Binding, Mean.
Source text: as §1

The target in the next data set is T19, dopamine transporter(h) (Homo sapiens, UniProt Q01959).
T19 construct: gene SLC6A3
Kind of data set: biochemical. Also noted: CEREP off-target panel, radioligand binding, inhibition of control specific binding. To be noted: read-out: % Inhibition of Control Specific Binding, Mean.
Source text: as §1

Data set [14] addresses T20, MAGL (monoacylglycerol lipase) (Homo sapiens, UniProt Q99685, K36A/L169S/L176S).
T20 construct: gene MGLL; tag-free hMAGL (K36A, L169S, L176S), His6-TEV tag cleaved
In words: X-ray co-crystal structure (crystal soaking), […] Å. It is filed as binding.

T12 sequence (P41145 whole entry): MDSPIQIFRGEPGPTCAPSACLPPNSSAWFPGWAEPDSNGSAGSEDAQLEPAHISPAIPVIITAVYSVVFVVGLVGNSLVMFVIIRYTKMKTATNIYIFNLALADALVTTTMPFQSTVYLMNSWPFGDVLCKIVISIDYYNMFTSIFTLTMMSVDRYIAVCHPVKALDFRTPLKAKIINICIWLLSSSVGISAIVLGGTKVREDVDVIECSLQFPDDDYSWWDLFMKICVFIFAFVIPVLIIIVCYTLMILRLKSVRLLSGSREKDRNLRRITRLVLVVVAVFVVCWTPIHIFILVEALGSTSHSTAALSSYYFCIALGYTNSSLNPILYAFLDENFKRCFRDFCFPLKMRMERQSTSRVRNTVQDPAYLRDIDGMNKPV
T2 sequence (Q12809 whole entry): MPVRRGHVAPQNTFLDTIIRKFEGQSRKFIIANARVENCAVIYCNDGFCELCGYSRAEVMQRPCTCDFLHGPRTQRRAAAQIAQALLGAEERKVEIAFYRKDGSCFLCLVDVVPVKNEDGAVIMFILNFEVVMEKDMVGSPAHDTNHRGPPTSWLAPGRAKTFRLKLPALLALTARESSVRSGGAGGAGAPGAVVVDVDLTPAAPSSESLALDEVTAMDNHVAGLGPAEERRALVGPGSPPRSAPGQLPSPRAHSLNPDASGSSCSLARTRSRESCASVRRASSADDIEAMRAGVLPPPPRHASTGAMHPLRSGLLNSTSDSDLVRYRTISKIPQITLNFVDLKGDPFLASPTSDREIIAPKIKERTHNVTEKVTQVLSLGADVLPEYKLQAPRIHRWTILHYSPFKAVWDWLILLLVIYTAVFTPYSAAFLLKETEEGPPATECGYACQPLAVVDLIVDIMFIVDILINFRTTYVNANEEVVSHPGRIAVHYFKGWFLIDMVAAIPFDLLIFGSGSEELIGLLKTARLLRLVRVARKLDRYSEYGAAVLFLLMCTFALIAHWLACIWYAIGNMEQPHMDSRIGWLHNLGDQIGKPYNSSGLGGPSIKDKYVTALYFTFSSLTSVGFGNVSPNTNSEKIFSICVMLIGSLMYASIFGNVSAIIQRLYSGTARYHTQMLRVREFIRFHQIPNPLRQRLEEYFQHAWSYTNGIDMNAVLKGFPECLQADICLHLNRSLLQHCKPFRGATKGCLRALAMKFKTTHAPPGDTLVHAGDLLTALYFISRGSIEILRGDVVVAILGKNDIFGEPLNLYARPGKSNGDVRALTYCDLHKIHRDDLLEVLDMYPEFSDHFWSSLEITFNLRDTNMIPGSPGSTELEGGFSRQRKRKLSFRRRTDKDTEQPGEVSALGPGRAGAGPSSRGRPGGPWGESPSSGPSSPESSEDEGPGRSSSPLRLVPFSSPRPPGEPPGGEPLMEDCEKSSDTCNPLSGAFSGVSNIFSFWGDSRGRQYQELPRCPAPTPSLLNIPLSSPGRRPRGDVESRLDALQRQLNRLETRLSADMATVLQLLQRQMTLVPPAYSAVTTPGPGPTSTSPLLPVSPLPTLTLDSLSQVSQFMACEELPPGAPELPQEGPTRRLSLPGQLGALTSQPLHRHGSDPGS
T7 sequence (P22303 whole entry): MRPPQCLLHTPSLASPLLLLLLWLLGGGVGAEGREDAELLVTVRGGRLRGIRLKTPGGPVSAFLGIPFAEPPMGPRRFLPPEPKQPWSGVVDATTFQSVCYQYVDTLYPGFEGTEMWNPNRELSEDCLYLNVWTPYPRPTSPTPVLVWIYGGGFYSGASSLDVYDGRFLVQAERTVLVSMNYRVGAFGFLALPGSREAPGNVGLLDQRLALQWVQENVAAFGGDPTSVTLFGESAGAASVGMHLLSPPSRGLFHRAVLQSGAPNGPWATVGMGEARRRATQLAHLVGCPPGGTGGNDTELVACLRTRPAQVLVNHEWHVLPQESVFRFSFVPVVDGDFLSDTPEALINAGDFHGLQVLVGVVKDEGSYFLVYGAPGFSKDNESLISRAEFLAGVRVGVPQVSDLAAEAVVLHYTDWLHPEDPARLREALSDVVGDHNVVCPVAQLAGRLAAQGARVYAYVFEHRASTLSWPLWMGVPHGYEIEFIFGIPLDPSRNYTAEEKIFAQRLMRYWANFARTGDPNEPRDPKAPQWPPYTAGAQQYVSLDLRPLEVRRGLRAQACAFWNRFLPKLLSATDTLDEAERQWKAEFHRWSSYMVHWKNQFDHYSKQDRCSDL
T6 sequence (Q08499 whole entry, canonical isoform): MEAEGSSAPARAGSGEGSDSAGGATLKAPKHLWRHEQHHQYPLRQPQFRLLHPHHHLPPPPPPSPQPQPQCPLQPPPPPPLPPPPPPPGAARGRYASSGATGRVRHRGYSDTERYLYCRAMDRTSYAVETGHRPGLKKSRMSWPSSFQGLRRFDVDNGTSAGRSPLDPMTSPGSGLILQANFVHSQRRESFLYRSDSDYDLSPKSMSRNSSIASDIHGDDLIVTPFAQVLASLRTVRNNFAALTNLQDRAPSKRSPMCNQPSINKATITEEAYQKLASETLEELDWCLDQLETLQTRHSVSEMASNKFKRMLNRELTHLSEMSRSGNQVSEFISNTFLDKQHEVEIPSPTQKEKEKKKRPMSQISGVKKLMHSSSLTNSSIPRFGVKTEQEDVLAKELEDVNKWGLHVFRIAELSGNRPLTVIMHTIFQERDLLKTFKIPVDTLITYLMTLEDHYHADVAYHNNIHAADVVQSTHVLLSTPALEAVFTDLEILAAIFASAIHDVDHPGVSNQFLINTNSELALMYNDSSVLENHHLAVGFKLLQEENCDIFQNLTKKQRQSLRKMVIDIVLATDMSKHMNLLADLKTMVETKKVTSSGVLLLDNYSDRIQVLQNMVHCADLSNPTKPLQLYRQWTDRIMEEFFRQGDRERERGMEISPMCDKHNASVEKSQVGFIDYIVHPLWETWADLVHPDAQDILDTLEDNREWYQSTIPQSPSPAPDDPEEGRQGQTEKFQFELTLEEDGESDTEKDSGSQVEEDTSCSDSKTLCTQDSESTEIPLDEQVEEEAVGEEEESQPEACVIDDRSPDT
T13 sequence (P35348 whole entry): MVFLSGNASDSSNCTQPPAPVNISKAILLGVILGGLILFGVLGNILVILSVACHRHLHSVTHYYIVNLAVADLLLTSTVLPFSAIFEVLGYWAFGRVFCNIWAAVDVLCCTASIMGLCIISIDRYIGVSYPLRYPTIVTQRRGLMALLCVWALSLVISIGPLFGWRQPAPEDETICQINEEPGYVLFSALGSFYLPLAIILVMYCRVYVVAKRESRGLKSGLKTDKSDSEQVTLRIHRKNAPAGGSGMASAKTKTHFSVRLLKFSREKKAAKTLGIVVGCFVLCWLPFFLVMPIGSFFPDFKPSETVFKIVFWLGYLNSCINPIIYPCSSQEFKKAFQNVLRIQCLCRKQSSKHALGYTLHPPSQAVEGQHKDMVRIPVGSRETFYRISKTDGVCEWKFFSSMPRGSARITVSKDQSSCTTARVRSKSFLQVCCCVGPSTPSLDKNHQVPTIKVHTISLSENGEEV

With `CCC(F)(F)C(=O)C[S+]([O-])c1ccc(C(=O)N2CCN(c3cccc(Cl)c3)[C@@H](C)[C@@H]2C)cc1Cl` (mixture of isomers) [compound 3, LEI-515], in data set [1], the “gel-based competitive ABPP (FP-TAMRA) on HEK293T membranes expressing human HSL” value is recorded as “confirmed by gel-based ABPP experiments using membrane fractions of HEK293T cells expressing recombinant human or mouse HSL”. Also, the inhibition at 10 µM was 5.8% in data set [2]; 9.5% on COX2(h); -27.2% at PDE3A (h); 5.4% on COX1(h); -16.6% at PDE4D2 (h); -5.3% at Lck kinase (h). Moreover, the inhibition at 10 µM on acetylcholinesterase (h) was 4.9%; on 5-HT transporter (h) it was 4.2%; in data set [5] it was -8.1%; in data set [6] it was 48.3%; in data set [7] it was 59.5%; in [8], 3.5%. The inhibition at 10 µM in data set [9] is 6.2%; in data set [10], -8%; in data set [11], 2.2%; in data set [12], 11.7%; in [13], 25.3%; on dopamine transporter(h) it was 45.2%. In data set [3], this molecule gave a concentration for half-maximal inhibition (IC50) of 25 nM. In data set [4], the “MS chemical proteomics on mouse tissues; gel-based competitive ABPP on recombina” value was “hormone-sensitive lipase (HSL) was identified as main off-target in lung, liver, and brain”. Further, the inhibition at 1 µM in data set [7] is 21.7%. Further, the “X-ray co-crystal structure (crystal soaking), 1.55 Å” value in data set [14] is “LEI-515 was covalently attached to the catalytic Ser122 residue through its electrophilic carbonyl group as a deprotonated hemiketal”.
